As a reminder, the melting point is the temperature, or range, at which the solid turns liquid. In turn, `COC(=O)c1ccc(OS(N)(=O)=O)cc1` showed a melting point of 116 to 118 °C.
With `CCOC(=O)c1c(CCc2ccc(OC)cc2)nc2c(c1-c1ccc(C(=O)NCc3ccco3)cc1)C(=O)N1CCC[C@H]21` the figure was 136 °C.
The figure for `Cc1nc(-c2cn(Cc3ccc(C(F)(F)F)cc3)nn2)sc1C(=O)NCc1ccccc1` is 131 to 132 °C; for `CC(C)Nc1c(-c2ccc(S(C)(=O)=O)cc2)cnn(Cc2ccccc2)c1=O` it is 146 to 147 °C.
The figure for `c1cc2c(c3c1CCN3)OCCO2` is 130 to 132 °C.
`O=C(NS(=O)(=O)c1ccc(Cl)cc1)N1C(=O)C(c2ccccc2)N1C(c1ccccc1)c1ccccc1` (stereo unspecified) returned a melting point of 162 to 163 °C.
`CC1(C)CCC(C)(C)c2cc(CC(=O)O)ccc21` gave a melting point of 149 to 150 °C.
`OCC(CO)c1ccccc1`: the melting point lay in the range of 52 to 54 °C.
For the molecule `O=C(Nc1ccc(F)cc1)c1ccccn1`, the melting point fell in the range of 100 to 103 °C.
`O=C(O)Cc1ccc2c(c1)N(C1CCN(CCc3ccc(F)cc3)CC1)CC2` registered a melting point of 130 to 132 °C.
The molecule `Cc1c(C(=O)Nc2cccc(C#N)c2N2CCC(CN3CCOCC3)CC2)cnn1-c1ccc(Cl)cc1` gave a melting point of 235 °C.
As to `NC(=O)[C@@H]1CCCc2cc(Sc3ccccc3)cc(F)c21`, the melting point was 167 to 168 °C.
With `O=C1CCCCN1c1ccc(I)cc1` the figure was 108 to 110 °C.
In turn, `CC#CCOc1ccc(SC(C(=O)NO)c2cccc3ccccc23)cc1` (stereo unspecified) returned a melting point of 140 °C.
With `NCCCCCCCCC(=O)O` the figure was 190 to 193 °C; with `COc1cc2c(cc1OC)C(C)=[N+]([O-])C(c1cccs1)N2` (stereo unspecified), 180 to 185 °C.
In turn, `CS(=O)(=O)N1CCC(Nc2nc(Nc3ccc(F)c(Cl)c3)nc(OCC(F)(F)F)n2)C1` (stereo unspecified) came in with a melting point of 199 to 200 °C.
The molecule `COc1ccc(C2=NN(C3CCN(S(=O)(=O)CCNCC(O)c4ccc(O)c(CO)c4)CC3)C(=O)[C@@H]3CC=CC[C@H]23)cc1OC` (stereo partly specified) displayed a melting point of 97 to 99 °C.
With `CN1CCn2c1nc(N1CCc3ccccc3CC1)c(C#N)c2=O` the figure was 174 to 177 °C; with `COc1ccc2cc(-c3ccncn3)ccc2n1`, 164 to 165 °C.
The figure for `CC(=O)OC1CSC(Oc2ccc(C#N)nc2C)C(OC(C)=O)C1OC(C)=O` (stereo unspecified) is 128 to 131 °C; for `O=C(O)CN1C(=O)C(=Cc2c3ccccc3cc3ccccc23)SC1=S` it is 277 to 279 °C.
`COc1cccc2c1CCc1nc(-c3ccncc3)oc1-2` displayed a melting point of 158 °C.
With `CN1C2CCC1CN(c1ccc(-c3ccccc3)cn1)C2` the figure was 110 °C.
`CCCCN1C(=O)c2cccc3c(SC)ccc1c23` yielded a melting point of 75 to 77 °C.
`CCCCCC(=O)c1c(C)nc2cc(OC)c(OC)cc2c1-c1ccc(OC)c(OC)c1` returned a melting point of 123 to 125 °C.
With `Cc1cc(C)nc(NC(=O)NS(=O)(=O)c2cc(Cl)sc2Cl)n1` the figure was 192 to 194 °C; with `CCOC(=O)C1NCCN(C(=O)OC(C)(C)C)C1=O` (stereo unspecified), 86 to 87 °C; with `O=C(O)c1cc(Oc2cc(F)c(C(F)(F)F)c(Cl)c2)ccc1Br`, 113 to 117 °C.
The figure for `COC(=O)c1ccc(-c2nc(-c3ccc(C(F)(F)F)cc3)cs2)cc1` is 156 to 158 °C; for `Cn1c(C(=O)O)c(-c2ccc(F)cc2)c2nccnc2c1=O` it is 247 to 249 °C.
With `CC(=O)NC1=NN(c2ccc(Cl)cc2)CC1C` (stereo unspecified) the figure was 172 to 173 °C.
`O=C1CCCC2=C1C(c1cccc([N+](=O)[O-])c1)C=C(C(F)(F)F)N2` (stereo unspecified) gave a melting point of 215 to 216 °C.
The figure for `O=S(CCCn1cnc(-c2ccc(F)cc2)c1-c1ccncc1)c1ccccc1` (stereo unspecified) is 146 to 148 °C.
With `Cc1c(C)c2ccc(OCCCc3ccccc3)cc2oc1=O` the figure was 104 °C; with `CC(Br)(CC(Cl)(Cl)Cl)c1cccc(Cl)n1` (stereo unspecified), 42 to 45 °C.
The figure for `CCN(CC)c1nc(C)[nH]c2c(-c3ccc(Cl)cc3Cl)nc(C)c1-2` is 146 to 148 °C; for `CCCc1c(OCCC(=O)O)ccc(C(C)=O)c1O` it is 142 to 146 °C.
The molecule `Cc1cnc(CNC(=O)c2sc(-n3cnn(Cc4ccc(F)cc4)c3=O)nc2C)cn1` gave a melting point of 188 to 189 °C.
With `C=CCn1c(CCl)nc(C(C)C)c1Sc1cccc(Cl)c1`, the melting point fell in the range of 84 to 86 °C.
`C(=Nc1ccc(Nc2ccccc2)cc1)Nc1ccc(Nc2ccccc2)cc1` displayed a melting point of 173 to 175 °C.
The molecule `CCC1(C)C(=O)c2cc(OC)c(Cl)c(Cl)c2C1=O` (stereo unspecified) registered a melting point of 157 °C.
With `Cc1ccc(C(CC(=O)O)C(=O)O)s1` (stereo unspecified) the figure was 186 to 188 °C; with `Nc1nc(N)nc(Cc2nc3ccccc3n2-c2ccccc2)n1`, 337 to 340 °C.
Molecule `CC1=NC(NC(=O)CCc2ccc(Cl)cc2Cl)C(=O)N(C)c2ccccc21` (stereo unspecified) showed a melting point of 194 to 195 °C.
As to `N#CN=C(Cc1ccc2c(c1)Nc1nccnc1S2)NCCCC(=O)O`, the melting point was in the range of 217 to 218 °C.
The figure for `CCCCCCCCCCCC1Cc2cc(C(=O)O)ccc2N1C` (racemic) is 102 to 104 °C.
For `COc1ccc(-c2ccc(Cl)c(C(=O)NCC34CC5CC(CC(C5)C3)C4)c2)c(C(=O)O)c1`, the melting point lay within 219 to 221 °C.
Molecule `Clc1ccc2c(Cl)c3c(nc2c1)CCCC3` yielded a melting point of 85 to 87 °C.
The figure for `Cc1c(Cl)cc2c(c1Cl)OC(C(F)(F)F)C(C(=O)O)=C2` (stereo unspecified) is 230 to 231 °C; for `COc1ccc(C(=O)NC(CC(C)C)C(=O)O)c(SSc2cc(OC)ccc2C(=O)NC(CC(C)C)C(=O)O)c1` (stereo unspecified) it is 230 to 231 °C.
With `Cc1ccc(C(=C(C=CC(O)CC(=O)CC(=O)OC(C)(C)C)c2nnnn2C)c2ccc(C)cc2F)c(F)c1` (stereo unspecified) the figure was 55 to 63 °C.
With `N#CC(O)C1(F)CCN(C(=O)c2ccc(F)c(Cl)c2)CC1` (stereo unspecified) the figure was 139 to 140 °C.
In turn, `CC(=O)c1c(C)[nH]c(CC(=O)O)c1C` had a melting point of 195 to 205 °C.
For the molecule `Cn1ccnc1-c1ccc(C(=O)CNC(=O)[C@H](Cc2ccccn2)NC(=O)OC(C)(C)C)cc1`, the melting point is 120 to 124 °C.
`NC(=O)c1c(Br)cc(Br)c(C(=O)O)c1Br` registered a melting point of more than 280 °C.
With `Cc1cn(C)c2ccc(NC(=O)Nc3cccnc3)cc12` the figure was 210 °C.
With `CC1(C)NC(=O)Oc2ccc(OCc3ccccc3)cc21` the figure was 134 °C.
With `O=S1(=O)N=CN(C2CC2)c2cccc(Cl)c21` the figure was 207 to 209 °C; with `CCCOc1cc(O)nc(N(C)C)n1`, 194 to 195 °C.
Regarding `O=C(NC1Cc2ccc(-c3ccc(F)cc3)cc2C1)c1ccc(F)cc1` (stereo unspecified), the melting point was 193 °C.
With `Nc1ccc(C2=Nn3ccnc3Cc3cc4c(cc32)OCO4)cc1` the figure was 264 to 265 °C.
With `CCc1cc2c(cc1O)CCC1C2CCC2(C)C(=CCOC)CCC12` (stereo unspecified) the figure was 133 to 134 °C.
With `O=C(NO)Oc1ccccc1` the figure was 99.5 to 101 °C.
Consider `C[C@H]1C[C@@](O)(c2cccc(Sc3ccc4c(c3)CC(=O)N4C)c2)CCO1`, for which the melting point lay in the range of 110 to 111 °C.
Consider `Cc1cccc(-c2csc(N3CCN(C(=O)Nc4cccnc4)CC3)n2)c1`, for which the melting point lay in the range of 157 to 158 °C.
The molecule `CNCC1Cc2cc(C(F)(F)F)cc(-c3cc(F)ccc3F)c2O1` (stereo unspecified) returned a melting point of 138 to 140 °C.
For `CC(Cc1cc(I)c(Oc2ccc(O)cc2)c(I)c1)(NC=O)C(=O)O` (stereo unspecified), the melting point fell in the range of 221 to 223 °C.
The figure for `OCc1cn(-c2cccc3cccnc23)cn1` is 168 to 170 °C.
`CCCC1=C(C(=O)OCC)C(c2cccc(F)c2F)c2c[nH]nc2N1` (stereo unspecified) registered a melting point of 207 °C.
In turn, `CC(=O)Nc1ccc(Cl)cc1C(=O)c1c(F)cccc1F` gave a melting point of 106 to 116 °C.
With `CCCCCCCCCCCCCCCCSCC(CN)NC(=O)OC` (stereo unspecified) the figure was 49 to 50.5 °C.
The molecule `CCOCCn1c(CN2CCCN(C)CC2)nc2ccccc21` came in with a melting point of 119 to 122 °C.
In turn, `CCCCOc1ccc2c(C(F)(F)F)c(OC)ccc2c1C(=O)N(C)CC(=O)O` registered a melting point of 152 to 155 °C.
With `N=C(NC(=O)c1ccc2ccccc2c1)c1ccc(N2CC(CN3CCN(CCC(=O)O)CC3)OC2=O)cc1` (stereo unspecified) the figure was 80 to 83 °C; with `Cc1c(-c2ccc(O)cc2)n(Cc2ccc(OCCN3CCC(C)CC3)cc2)c2ccc(O)cc12`, 154 to 162 °C; with `CC(C)(C)OC(=O)NC(CC(=O)NC1CC1)C1CC1` (stereo unspecified), 166 to 168 °C.
The figure for `Oc1ccc2c(c1)CCCC(c1ccccc1)=C2c1ccc(OCCCCCSCc2ccccn2)cc1` is 159 °C.
The molecule `COC(=O)N(C)CCc1ccc2[nH]c(C)c(S(=O)(=O)c3ccccc3)c2c1` came in with a melting point of 188 to 191 °C.
Take `Cn1cc(C2=C(c3cn(C)c4cc([N+](=O)[O-])ccc34)C(=O)N(CO)C2=O)c2ccccc21`: the melting point lay within 209 to 211 °C.
The molecule `COc1cc2c(cc1OC)-c1c(-c3nc(C)no3)c(-c3cc(C)c(O)c(C)c3)c(C)n1CC2` yielded a melting point of 218 to 221 °C.
With `O=C(CCCCCSc1ccc(Cl)cc1)NO` the figure was 83 to 85 °C; with `COC(=O)C(C(=O)OC)C(C#Cc1ccccc1)c1ccc(OC)c(OC2CCCC2)c1` (racemic), 66 to 67 °C.
As for `Cc1ccc(SN(C)C=Nc2ccc(Cl)cc2C)cc1`, the melting point lay in the range of 49 to 50.5 °C.
The figure for `CCCCCC1OCc2cc(C(=O)Oc3ccc(CCC)cc3)ccc2O1` (stereo unspecified) is 97.5 °C; for `ON=CCCc1ccccc1` it is 85 to 93 °C; for `CCCCc1nc2c(N)nc3cccnc3c2n1CCNC(=O)c1c(C)noc1C` it is 188 to 189 °C.
In turn, `NC(=O)c1sc2nccc(N3CCN(c4ccccn4)CC3)c2c1N` gave a melting point of 266 to 270 °C.
Take `CC(C)C1CCC(C(=O)N[C@H](Cc2ccccc2)C(=O)O)CC1` (stereo partly specified): the melting point was in the range of 129 to 130 °C.
`COc1ccc(C(=O)Nc2ccccc2)cc1NCc1cccs1`: the melting point is 195 to 197 °C.
In turn, `Cc1ccc(N2CCN(Cc3ccc4c(c3)NCCN4)CC2)cc1C` returned a melting point of 148 to 149 °C.

The record behind these values is a melting point compilation (Tetko et al.; mined from patent text by program, amines drawn as free bases though some values may be those of a salt).
